Results reported in US20160158200A1, “Combinations of Hepatitis C Virus Inhibitors” (priority 2013, published 2016).

The molecules below were run on HCV genotype-1a variant with glutamine 30 changed to glutamate in the NS5A protein. Details: test compound titrated with BMS-790052 fixed at 200 nM; genotype 1a Q30E replicon.
Assay type: cell-based
Summary of the method: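 Synergy was assessed by combining several fixed amounts of an NS5A-targeting compound with a titration of the second compound of interest.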
In the case of COc1ccccc1C(O)CC(=O)N[C@H](c1nc(-c2ccc(-c3ccc(-c4c[nH]c([C@@H](NC(=O)C5(C(O)c6ccccc6OC)CC5)C(C)(C)C)n4)cc3)cc2)c[nH]1)C(C)(C)C (single isomer, unassigned) [Compound N-135A], the “Fold-Synergistic 1a (Q30E)” value was >100 fold. For CC(C)(C)C(NC(=O)C1(NC(=O)C2CC2(F)F)CCCCC1)c1nc(-c2ccc(-c3ccc(-c4c[nH]c(C(NC(=O)C5(NC(=O)C6CC6(F)F)CCCCC5)C(C)(C)C)n4)cc3)cc2)c[nH]1 (mixture of isomers) [Compound W-277], the “Fold-Synergistic 1a (Q30E)” value was >100 fold. In the case of O=C(c1cc2ccccc2[nH]1)N1CCC[C@H]1c1ncc(-c2ccc(-c3ccc(-c4cnc([C@@H]5CCCN5C(=O)c5cc6ccccc6[nH]5)[nH]4)cc3)cc2)[nH]1 [Compound S-120], the “Fold-Synergistic 1a (Q30E)” value was <10 fold. For C=CC(C)(C)C(=O)N[C@H](c1nc(-c2ccc(-c3ccc(-c4cnc([C@@H](NC(=O)C(C)(C)C=C)C(C)(C)C)[nH]4)cc3)cc2)c[nH]1)C(C)(C)C.O=C(O)C(F)(F)F [Compound B-166], the “Fold-Synergistic 1a (Q30E)” value was >100 fold. In the case of CC(C)(C)OC(=O)N1CC(F)(F)CC1(C)C(=O)N[C@H](c1nc(-c2ccc(-c3ccc(-c4c[nH]c([C@@H](NC(=O)C5(C)CC(F)(F)CN5C(=O)OC(C)(C)C)C(C)(C)C)n4)cc3)cc2)c[nH]1)C(C)(C)C (single isomer, unassigned) [Compound W-77], the “Fold-Synergistic 1a (Q30E)” value was >100 fold. For CC(C)(C)[C@H](NC(=O)[C@@]1(C)CCC(F)(F)CO1)c1ncc(-c2ccc([C@H]3C[C@@H]3c3ccc(-c4cnc([C@@H](NC(=O)[C@@]5(C)CCC(F)(F)CO5)C(C)(C)C)[nH]4)cc3)cc2)[nH]1 [Compound B-187], the “Fold-Synergistic 1a (Q30E)” value was >100 fold. With CC(C)(C(=O)N[C@H](c1nc(-c2ccc(-c3ccc(-c4cnc([C@@H](NC(=O)C(C)(C)C5CCCO5)C(C)(C)C)[nH]4)cc3)cc2)c[nH]1)C(C)(C)C)C1CCCO1 (single isomer, unassigned) [Compound B-169] the “Fold-Synergistic 1a (Q30E)” value was >100 fold. With O=C(c1cccc2ccccc12)N1CCC[C@H]1c1ncc(-c2ccc(-c3ccc(-c4cnc([C@@H]5CCCN5C(=O)c5cccc6ccccc56)[nH]4)cc3)cc2)[nH]1 [Compound S-119] the “Fold-Synergistic 1a (Q30E)” value was >10 fold. With CC(C)[C@H](NC(=O)C1CC(F)(F)C1)c1ncc(-c2ccc(-c3ccc(-c4cnc([C@@H](NC(=O)C5CC(F)(F)C5)C(C)C)[nH]4)cc3)cc2)[nH]1 [Compound P-83] the “Fold-Synergistic 1a (Q30E)” value was >100 fold. CN(C(=O)C1CCC(F)(F)CC1)[C@H](c1ncc(-c2ccc(-c3ccc(-c4cnc([C@@H](N(C)C(=O)C5CCC(F)(F)CC5)C(C)(C)C)[nH]4)cc3)cc2)[nH]1)C(C)(C)C [Compound B-206] was tested, and the “Fold-Synergistic 1a (Q30E)” value was <10 fold. With CC(C)[C@H](NC(=O)c1cc(Cl)ccc1F)c1nc(-c2ccc(-c3ccc(-c4c[nH]c([C@@H](NC(=O)c5cc(Cl)ccc5F)C(C)C)n4)c(F)c3)cc2)c[nH]1.O=C(O)C(F)(F)F [Compound N-88] the “Fold-Synergistic 1a (Q30E)” value was >100 fold. In the case of CC1([C@H](NC(=O)C(=O)N2CCC(C(F)(F)F)CC2)c2nc(-c3ccc(-c4ccc(-c5c[nH]c([C@@H](NC(=O)C(=O)N6CCC(C(F)(F)F)CC6)C6(C)CC6)n5)cc4)cc3)c[nH]2)CC1 [Compound W-59], the “Fold-Synergistic 1a (Q30E)” value was >100 fold. For CC(C)[C@H](NC(=O)COc1ccccc1)c1ncc(-c2ccc(-c3ccc(-c4cnc([C@@H](NC(=O)COc5ccccc5)C(C)C)[nH]4)cc3)cc2)[nH]1 [Compound S-35], the “Fold-Synergistic 1a (Q30E)” value was >100 fold. CC(C)(C)[C@H](NC(=O)Cc1ccc(F)cc1)c1nc(-c2ccc(-c3ccc(-c4c[nH]c([C@@H](NC(=O)Cc5ccc(F)cc5)C(C)(C)C)n4)cc3)cc2)c[nH]1 [Compound N-49] was tested, and the “Fold-Synergistic 1a (Q30E)” value was >100 fold. For CC(C)[C@H](NC(=O)c1ccc(C(F)(F)F)nc1)c1ncc(-c2ccc(-c3ccc(-c4cnc([C@@H](NC(=O)c5ccc(C(F)(F)F)nc5)C(C)(C)C)[nH]4)cc3)cc2)[nH]1 [Compound Y-47], the “Fold-Synergistic 1a (Q30E)” value was >100 fold. Cc1cc(-c2ccc(-c3c[nH]c([C@@H](NC(=O)C4(C)CCC(F)(F)CC4)C(C)C)n3)cc2)ccc1-c1c[nH]c([C@@H](NC(=O)C2(C)CCC(F)(F)CC2)C(C)C)n1.O=C(O)C(F)(F)F [Compound N-84] was tested, and the “Fold-Synergistic 1a (Q30E)” value was >100 fold. With CC(C)[C@H](NC(=O)[C@@H]1CCCCO1)c1ncc(-c2ccc(-c3ccc(-c4cnc([C@@H](NC(=O)[C@H]5CCCCO5)C(C)C)[nH]4)cc3)cc2)[nH]1 [Compound Y-56] the “Fold-Synergistic 1a (Q30E)” value was >100 fold. With CC(C)(C)C(=O)N[C@H](c1nc(-c2ccc(-c3cnc(-c4c[nH]c([C@@H](NC(=O)C(C)(C)C)C(C)(C)C)n4)cn3)cc2)c[nH]1)C(C)(C)C.O=C(O)C(F)(F)F [Compound N-105] the “Fold-Synergistic 1a (Q30E)” value was >100 fold. CCOC(=O)C(C)(C)C(=O)N[C@H](c1nc(-c2ccc(-c3ccc(-c4c[nH]c([C@@H](NC(=O)C(C)(C)C(=O)OCC)C(C)(C)C)n4)cc3)cc2)c[nH]1)C(C)(C)C.O=C(O)C(F)(F)F.O=C(O)C(F)(F)F [Compound W-126] was tested, and the “Fold-Synergistic 1a (Q30E)” value was >100 fold. In the case of CC(C)[C@H](NC(=O)C(C)(C)C)c1nc(-c2ccc3c(c2)CCc2cc(-c4c[nH]c([C@@H](NC(=O)C(C)(C)C)C(C)C)n4)ccc2-3)c[nH]1 [Compound N-74], the “Fold-Synergistic 1a (Q30E)” value was >100 fold. CC(C)[C@H](NC(=O)c1ccc(C(F)(F)F)nc1)c1ncc(-c2ccc(-c3ccc(-c4cnc([C@@H](NC(=O)C(C)(C)C)C(C)C)[nH]4)cc3)cc2)[nH]1 [Compound Y-53] was tested, and the “Fold-Synergistic 1a (Q30E)” value was >100 fold. In the case of CC1([C@H](NC(=O)C2CCC(F)(F)CC2)c2ncc(-c3ccc(-c4ccc(-c5cnc([C@@H](NC(=O)C6CCC(F)(F)CC6)C6(C)CC6)[nH]5)cc4)cc3)[nH]2)CC1 [Compound Y-34], the “Fold-Synergistic 1a (Q30E)” value was >100 fold. CC1(C(=O)N[C@H](c2ncc(-c3ccc(-c4ccc(-c5cnc([C@@H](NC(=O)C6(C)CCC(F)(F)CC6)C6(C)CC6)[nH]5)cc4)cc3)[nH]2)C2(C)CC2)CCC(F)(F)CC1 [Compound P-133] was tested, and the “Fold-Synergistic 1a (Q30E)” value was >100 fold. O=C(N[C@H]1CCC[C@H]1c1nc(-c2ccc(-c3ccc(-c4c[nH]c([C@@H]5CCC[C@@H]5NC(=O)C5CCC(F)(F)CC5)n4)cc3)cc2)c[nH]1)C1CCC(F)(F)CC1 [Compound L-106] was tested, and the “Fold-Synergistic 1a (Q30E)” value was >100 fold. CC(C)OC(C)(C)C(=O)N[C@H](c1ncc(-c2ccc(-c3ccc(-c4cnc([C@@H](NC(=O)C(C)(C)OC(C)C)C(C)C)[nH]4)cc3)cc2)[nH]1)C(C)C [Compound Y-29] was tested, and the “Fold-Synergistic 1a (Q30E)” value was >100 fold. For CC(C)(C)C(=O)N1CCC(C)(C)C1c1nc(-c2ccc(-c3ccc(-c4c[nH]c(C5N(C(=O)C(C)(C)C)CCC5(C)C)n4)cc3)cc2)c[nH]1 (stereo not shown) [Compound W-219], the “Fold-Synergistic 1a (Q30E)” value was >10 fold. With O=C(Oc1ccccc1)N1CCC[C@H]1c1ncc(-c2ccc(-c3ccc(-c4cnc([C@@H]5CCCN5C(=O)Oc5ccccc5)[nH]4)cc3)cc2)[nH]1 [Compound S-223] the “Fold-Synergistic 1a (Q30E)” value was >100 fold. In the case of COCC1(C(=O)N[C@H](c2ncc(-c3ccc(-c4ccc(-c5cnc([C@@H](NC(=O)C6(COC)CCC6)C(C)C)[nH]5)cc4)cc3)[nH]2)C(C)C)CCC1 [Compound P-74], the “Fold-Synergistic 1a (Q30E)” value was >100 fold. In the case of CC(C)(C)[C@H](NC(=O)C1(O)CCC(F)(F)CC1)c1nc(-c2ccc(-c3ccc(-c4c[nH]c([C@@H](NC(=O)C5(O)CCC(F)(F)CC5)C(C)(C)C)n4)cc3)cc2)c[nH]1 [Compound P-33], the “Fold-Synergistic 1a (Q30E)” value was >100 fold. For CC(C)[C@H](NC(=O)c1ccc(C(F)(F)F)nc1)c1ncc(-c2ccc(-c3ccc(-c4cnc([C@@H](NC(=O)c5ccc(C(F)(F)F)nc5)C(C)C)[nH]4)cc3)cc2)[nH]1 [Compound S-103], the “Fold-Synergistic 1a (Q30E)” value was >100 fold. With COc1cccc2c(C(=O)N3[C@@H]4C[C@@H]4C[C@H]3c3ncc(-c4ccc(-c5ccc(-c6cnc([C@@H]7C[C@H]8C[C@H]8N7C(=O)c7nc(Cl)cc8c(OC)cccc78)[nH]6)cc5)cc4)[nH]3)nc(Cl)cc12 [Compound P-49] the “Fold-Synergistic 1a (Q30E)” value was >100 fold. With CC(C)[C@H](NC(=O)c1c(F)cc(F)cc1F)c1ncc(-c2ccc(-c3ccc(-c4cnc([C@@H](NC(=O)c5c(F)cc(F)cc5F)C(C)C)[nH]4)cc3)cc2)[nH]1 [Compound S-92] the “Fold-Synergistic 1a (Q30E)” value was >100 fold. COC1(C(=O)NC(c2nc(-c3ccc(-c4ccc(-c5c[nH]c(C(NC(=O)C6(OC)CCOC6)C(C)C)n5)cc4)cc3)c[nH]2)C(C)C)CCOC1 (mixture of isomers) [Compound N-159] was tested, and the “Fold-Synergistic 1a (Q30E)” value was >100 fold. For COC(C)(CCO)C(=O)N[C@H](c1nc(-c2ccc(-c3ccc(-c4c[nH]c([C@@H](NC(=O)C(C)(CCO)OC)C(C)(C)C)n4)cc3)cc2)c[nH]1)C(C)(C)C (single isomer, unassigned) [Compound W-257], the “Fold-Synergistic 1a (Q30E)” value was >100 fold. For CC(C)[C@H](NC(=O)C(C)(C)c1ccccc1)c1ncc(-c2ccc(-c3ccc(-c4cnc([C@@H](NC(=O)C(C)(C)c5ccccc5)C(C)C)[nH]4)cc3)cc2)[nH]1 [Compound S-47], the “Fold-Synergistic 1a (Q30E)” value was >100 fold. With CC(C)N(C(=O)C(=O)N[C@H](c1nc(-c2ccc(-c3ccc(-c4c[nH]c([C@@H](NC(=O)C(=O)N(C(C)C)C5CC5)C5(C)CC5)n4)cc3)cc2)c[nH]1)C1(C)CC1)C1CC1 [Compound W-58] the “Fold-Synergistic 1a (Q30E)” value was >100 fold. CC(C)[C@H](NC(=O)c1nn(C)c2ccccc12)c1ncc(-c2ccc(-c3ccc(-c4cnc([C@@H](NC(=O)c5nn(C)c6ccccc56)C(C)C)[nH]4)cc3)cc2)[nH]1 [Compound P-96] was tested, and the “Fold-Synergistic 1a (Q30E)” value was >100 fold. In the case of O=C(c1nccc2c(Cl)cccc12)N1CCC[C@H]1c1ncc(-c2ccc(-c3ccc(-c4cnc([C@@H]5CCCN5C(=O)c5nccc6c(Cl)cccc56)[nH]4)cc3)cc2)[nH]1 [Compound S-206], the “Fold-Synergistic 1a (Q30E)” value was >100 fold. In the case of CC1(C)CC1C(=O)N[C@H](c1ncc(-c2ccc(-c3ccc(-c4cnc([C@@H](NC(=O)C5CC5(C)C)C(C)(C)C)[nH]4)cc3)cc2)[nH]1)C(C)(C)C (single isomer, unassigned) [Compound B81], the “Fold-Synergistic 1a (Q30E)” value was >100 fold. In the case of CC(C)[C@H](NC(=O)C1(C)CCCC1)c1ncc(-c2ccc3c(c2)Cc2cc(-c4cnc([C@@H](NC(=O)C5(C)CCCC5)C(C)C)[nH]4)ccc2-3)[nH]1.O=C(O)C(F)(F)F [Compound N-72], the “Fold-Synergistic 1a (Q30E)” value was >100 fold.
